Target: rat nNOS (Rattus norvegicus, UniProt P29476)
Experiment: NOS inhibition assay
Format: biochemical
Conditions: compared with inhibitor 27

decrease in potency (nNOS) relative to 27: 54 fold
Structure (SMILES): Cc1cc(N)nc(COc2cccc(NCCc3cccc(F)c3)c2)c1 [Compound 24]

Reference: PMC3760172 (Bioorganic & medicinal chemistry, 2013)
